Results: patent US20240418717A1, “APPARATUS AND METHOD FOR ANALYZING PLATELET AGGREGATION” (MEDTRONIC VASCULAR, INC., priority 2020, published 2024)

Legend:
[1] = tested on: platelets in platelet rich plasma (PRP); experiment: Platelet aggregation by washer (disk) minimum position in platelet rich plasma; type: cell-based; conditions: platelet rich plasma containing 1.5 U/mL heparin; 20 micromolar ADP; relative to absence of ADP; FIG. 8
Source text: Platelet rich plasma (PRP) containing 1.5 U/mL heparin was filled into a six-channel cartridge similar to cartridge 200 depicted in and described regarding FIG. 7 for use with an analyzer similar to analyzer 300 depicted in and described regarding FIG. 6. The analyzer and cartridge were similar to those described in U.S. Pat. Nos. 5,629,209 and 6,613,286.
One chamber of the cartridge contained ADP such that the concentration in the chamber was 20 micromolar after introduction of the sample. Another chamber included no ADP. No other clot enhancing agent was in the sample or chamber of the cartridge. The chambers included a ferromagnetic washer. The cartridge was inserted in the analyzer before PRP sample fill. Immediately after the sample introduction, the test began, and platelet aggregation was analyzed.
The analyzer was programmed to hold the washer (disk) at the top of the chamber for 90 to 95% of the test cycle (a test cycle is the time sum of lift time and drop time), which was about 4.5 seconds for a test cycle of 5 seconds, to ensure platelets in the test sample aggregated and accumulated at the bottom of the chamber. The washer was allowed to drop (electromagnet deactivated), and the washer minimum position was determined by the proximity sensor (e.g., sensor 30 depicted in and described regarding FIGS. 2-5) in the presence and absence of ADP.

platelet poor plasma = experiment: Platelet aggregation by washer (disk) minimum position in platelet poor plasma; type: cell-based; conditions: platelet poor plasma containing 1.5 U/mL heparin; 20 micromolar ADP; FIG. 9
Source text: Platelet poor plasma […] containing 1.5 U/mL heparin was filled into a six-channel cartridge similar to cartridge 200 depicted in and described regarding FIG. 7 for use with a blood analyzer similar to analyzer 300 depicted and described regarding FIG. 6. The analyzer and cartridge were similar to those described in U.S. Pat. Nos. 5,629,209 and 6,613,286. A chamber of the cartridge contained ADP such that the concentration in the chamber was 20 micromolar after introduction of the sample. No other clot enhancing agent was in the sample or chamber of the cartridge. The chambers included a ferromagnetic washer. Following introduction of the sample after the cartridge was inserted into the blood analyzer, the test was started, and platelet aggregation was analyzed. The blood analyzer was programmed to hold the washer (disk) at the top of the chamber for 90 to 95% of the test cycle (a test cycle is the time sum of lift time and drop time), which was about 4.5 seconds for a test cycle of 5 seconds, to ensure platelets in the test sample aggregated and accumulated at the bottom of the chamber. The washer was allowed to drop (electromagnet deactivated), and the washer minimum position was determined.

Nc1ncnc2c1ncn2[C@@H]1O[C@H](COP(=O)(O)OP(=O)(O)O)[C@@H](O)[C@H]1O [ADP, adenosine diphosphate]
washer (disk) minimum position (platelet aggregation) [1]: increased
disk minimal position (platelet aggregation) (platelet poor plasma): did not increase
